Literature values as cited in patent publication US20220257506A1, “Alkaline Drink” (WET HOLDINGS (GLOBAL) LIMITED, priority 2019, published 2022).

Assays:
[1] = system: testicular endocrine function; details: dogs, very high doses
[2] = system: adrenal and gonadal steroidogenesis; details: humans, up to 80 mg/day, basal conditions
[3] = acute administration, humans
[4] = acute dosing, murine stroke models
[5] = not given; remark: listed apart in the source
[6] = humans

CC[C@H](C)C(=O)O[C@H]1C[C@@H](C)C=C2C=C[C@H](C)[C@H](CC[C@@H]3C[C@@H](O)CC(=O)O3)[C@H]21 [lovastatin]
testicular endocrine function [1]: reduction in testicular endocrine function
effect on adrenal and gonadal steroidogenesis [2]: no effect on adrenal and gonadal steroidogenesis

CCCCCc1cc(O)c2c(c1)OC(C)(C)[C@@H]1CCC(C)=C[C@@H]21 [THC, (−)-trans-Δ^9-tetrahydrocannabinol]
HR [3]: increased HR
cerebral BF [4]: increased cerebral BF
BP and heart rate (acute dosing, anaesthetised animals, conscious animals and animal models of stress or hypertension): reduced BP and heart rate
BF in large arteries (chronic dosing, anaesthetised animals): increased BF in large arteries
BP (chronic dosing, models of stress or hypertension): reduced BP

C=C(C)[C@@H]1CCC(C)=C[C@H]1c1c(O)cc(CCCCC)cc1O [CBD, Cannabidiol]
decrease of blood pressure ([5]; 600 mg single dose, nine healthy male volunteers): about 6 mm Hg
resting blood pressure and blood pressure response to stress ([5]; single dose, particularly cold stress, post-test periods): reduces resting blood pressure and the blood pressure response to stress
abuse or dependence potential [6]: no effects indicative of any abuse or dependence potential
